In ChEMBL document CHEMBL4138123, “Design, synthesis and biological evaluation of novel pyrazolochalcones as potential modulators of PI3K/Akt/mTOR pathway and inducers of apoptosis in breast cancer cells” (Eur J Med Chem, 2017):

Assays:
NCI-H322M = experiment: Cytotoxicity against human NCI-H322M cells assessed as growth inhibition after 48 hrs by sulforhodamine B assay; assay type: functional
HCC 2998 = experiment: Cytotoxicity against human HCC2998 cells assessed as growth inhibition after 48 hrs by sulforhodamine B assay; assay type: functional; details: HCC 2998, 48 h
SW-620 [1] = experiment: Cytotoxicity against human SW620 cells assessed as growth inhibition after 48 hrs by sulforhodamine B assay; assay type: functional; details: SW-620, 48 h
SK-MEL-2 = experiment: Cytotoxicity against human SK-MEL-2 cells assessed as growth inhibition after 48 hrs by sulforhodamine B assay; assay type: functional; details: SK-MEL-2, 48 h
UACC-257 = experiment: Cytotoxicity against human UACC257 cells assessed as growth inhibition after 48 hrs by sulforhodamine B assay; assay type: functional; details: UACC-257, 48 h
SK-OV-3 = experiment: Cytotoxicity against human SKOV3 cells assessed as growth inhibition after 48 hrs by sulforhodamine B assay; assay type: functional; details: SK-OV-3, 48 h
MCF7 [2] = experiment: Cytotoxicity against human MCF7 cells assessed as growth inhibition after 48 hrs by MTT assay; assay type: functional, cell-based; details: MCF7, 48 h
OVCAR-5 = experiment: Cytotoxicity against human OVCAR5 cells assessed as cell growth at 0.01 uM after 48 hrs by sulforhodamine B assay relative to control; assay type: functional; details: OVCAR-5, 48 h, read-out: Activity
OVCAR-4 = experiment: Cytotoxicity against human OVCAR4 cells assessed as cell growth at 0.01 uM after 48 hrs by sulforhodamine B assay relative to control; assay type: functional; details: OVCAR-4, 48 h, read-out: Activity
SF-268 [3] = experiment: Cytotoxicity against human SF268 cells assessed as cell growth at 0.01 uM after 48 hrs by sulforhodamine B assay relative to control; assay type: functional; details: SF-268, 48 h, read-out: Activity
KM12 = experiment: Cytotoxicity against human KM12 cells assessed as cell growth at 0.01 uM after 48 hrs by sulforhodamine B assay relative to control; assay type: functional; details: KM12, 48 h, read-out: Activity
COLO 205 = experiment: Cytotoxicity against human COLO205 cells assessed as cell growth at 0.01 uM after 48 hrs by sulforhodamine B assay relative to control; assay type: functional; details: COLO 205, 48 h, read-out: Activity
HOP-62 = experiment: Cytotoxicity against human HOP62 cells assessed as cell growth at 0.01 uM after 48 hrs by sulforhodamine B assay relative to control; assay type: functional; details: HOP-62, 48 h, read-out: Activity
MOLT-4 [4] = experiment: Cytotoxicity against human MOLT4 cells assessed as cell growth at 0.01 uM after 48 hrs by sulforhodamine B assay relative to control; assay type: functional; details: MOLT-4, 48 h, read-out: Activity
MDA-MB-231 = experiment: Cytotoxicity against human MDA-MB-231 cells assessed as cell growth at 0.01 uM after 48 hrs by sulforhodamine B assay relative to control; assay type: functional; details: MDA-MB-231, 48 h, read-out: Activity
BT-549 = experiment: Cytotoxicity against human BT549 cells assessed as cell growth at 0.01 uM after 48 hrs by sulforhodamine B assay relative to control; assay type: functional; details: BT-549, 48 h, read-out: Activity
SW-620 [5] = experiment: Cytotoxicity against human SW620 cells assessed as cell growth at 0.1 uM after 48 hrs by sulforhodamine B assay relative to control; assay type: functional; details: SW-620, 48 h, read-out: Activity
IGROV-1 = experiment: Cytotoxicity against human IGROV1 cells assessed as cell growth at 0.1 uM after 48 hrs by sulforhodamine B assay relative to control; assay type: functional; details: IGROV-1, 48 h, read-out: Activity
CCRF-CEM = experiment: Cytotoxicity against human CCRF-CEM cells assessed as cell growth at 1 uM after 48 hrs by sulforhodamine B assay relative to control; assay type: functional; details: read-out: Activity
MOLT-4 [6] = experiment: Cytotoxicity against human MOLT4 cells assessed as cell growth at 1 uM after 48 hrs by sulforhodamine B assay relative to control; assay type: functional; details: MOLT-4, 48 h, read-out: Activity
SF-268 [7] = experiment: Cytotoxicity against human SF268 cells assessed as cell growth at 1 uM after 48 hrs by sulforhodamine B assay relative to control; assay type: functional; details: SF-268, 48 h, read-out: Activity
SNB-19 = experiment: Cytotoxicity against human SNB19 cells assessed as cell growth at 1 uM after 48 hrs by sulforhodamine B assay relative to control; assay type: functional; details: SNB-19, 48 h, read-out: Activity
SK-MEL-28 = experiment: Cytotoxicity against human SK-MEL-28 cells assessed as cell growth at 1 uM after 48 hrs by sulforhodamine B assay relative to control; assay type: functional; details: SK-MEL-28, 48 h, read-out: Activity
A498 = experiment: Cytotoxicity against human A498 cells assessed as cell growth at 1 uM after 48 hrs by sulforhodamine B assay relative to control; assay type: functional; details: A498, 48 h, read-out: Activity
SR = experiment: Cytotoxicity against human SR cells assessed as cell growth at 10 uM after 48 hrs by sulforhodamine B assay relative to control; assay type: functional; details: read-out: Activity
NCI-H23 = experiment: Cytotoxicity against human NCI-H23 cells assessed as cell growth at 10 uM after 48 hrs by sulforhodamine B assay relative to control; assay type: functional; details: NCI-H23, 48 h, read-out: Activity
SW-620 [8] = experiment: Cytotoxicity against human SW620 cells assessed as cell growth at 10 uM after 48 hrs by sulforhodamine B assay relative to control; assay type: functional; details: SW-620, 48 h, read-out: Activity
SF-268 [9] = experiment: Cytotoxicity against human SF268 cells assessed as cell growth at 10 uM after 48 hrs by sulforhodamine B assay relative to control; assay type: functional; details: SF-268, 48 h, read-out: Activity
Malme-3M = experiment: Cytotoxicity against human MALME-3M cells assessed as cell growth at 10 uM after 48 hrs by sulforhodamine B assay relative to control; assay type: functional; details: read-out: Activity
NCI/ADR-RES [10] = experiment: Cytotoxicity against human NCI/ADR-RES cells assessed as cell growth at 10 uM after 48 hrs by sulforhodamine B assay relative to control; assay type: functional; details: read-out: Activity
MCF7 [11] = experiment: Cytotoxicity against human MCF7 cells assessed as cell growth at 10 uM after 48 hrs by sulforhodamine B assay relative to control; assay type: functional; details: MCF7, 48 h, read-out: Activity
T47D = experiment: Cytotoxicity against human T47D cells assessed as cell growth at 10 uM after 48 hrs by sulforhodamine B assay relative to control; assay type: functional; details: read-out: Activity
A549 = experiment: Cytotoxicity against human A549/ATCC cells assessed as cell growth at 100 uM after 48 hrs by sulforhodamine B assay relative to control; assay type: functional; details: A549, 48 h, read-out: Activity
NCI-H460 = experiment: Cytotoxicity against human NCI-H460 cells assessed as cell growth at 100 uM after 48 hrs by sulforhodamine B assay relative to control; assay type: functional; details: NCI-H460, 48 h, read-out: Activity
NCI/ADR-RES [12] = experiment: Cytotoxicity against human NCI/ADR-RES cells assessed as cell growth at 100 uM after 48 hrs by sulforhodamine B assay relative to control; assay type: functional; details: read-out: Activity

COc1cc(-c2cc(/C=C/C(=O)c3ccc(N)cc3)[nH]n2)cc(OC)c1OC
GI50 (NCI-H322M): 2.23 µM | TGI (NCI-H322M): 5.59 µM | CC50 (NCI-H322M; read-out: LC50 (the source's name)): 20.9 µM | GI50 (HCC 2998): 2.01 µM | LC50 (HCC 2998): 6.53 µM | TGI (HCC 2998): 3.63 µM | GI50 (SW-620 [1]): 2.05 µM | LC50 (lethal concentration, 50% net cell kill) (SW-620 [1]): > 100 µM | TGI (SW-620 [1]): 6.37 µM | GI50 (SK-MEL-2): 2.85 µM | LC50 (concentration killing 50% of cells) (SK-MEL-2): 31.9 µM | TGI (SK-MEL-2): 7.53 µM | GI50 (UACC-257): 1.87 µM | LC50 (UACC-257): 8.66 µM | TGI (UACC-257): 4.02 µM | GI50 (SK-OV-3): 2.99 µM | LC50 (SK-OV-3): 28.9 µM | TGI (SK-OV-3): 8.32 µM | IC50 (MCF7 [2]): 1.6 µM | growth at 0.01 µM (OVCAR-5): 90% | growth at 0.01 µM (OVCAR-4): 85% | growth at 0.01 µM (SF-268 [3]): 99% | growth at 0.01 µM (KM12): 102% | growth at 0.01 µM (COLO 205): 93% | growth at 0.01 µM (HOP-62): 83% | growth at 0.01 µM (MOLT-4 [4]): 101% | growth at 0.01 µM (MDA-MB-231): 109% | growth at 0.01 µM (BT-549): 85% | growth at 0.1 µM (SW-620 [5]): 95% | growth at 0.1 µM (IGROV-1): 108% | growth at 1 µM (CCRF-CEM): 36% | growth at 1 µM (MOLT-4 [6]): 72% | growth at 1 µM (SF-268 [7]): 81% | growth at 1 µM (SNB-19): 79% | growth at 1 µM (SK-MEL-28): 90% | growth at 1 µM (A498): 76% | growth at 10 µM (SR): -18% | growth at 10 µM (NCI-H23): -19% | growth at 10 µM (SW-620 [8]): -20% | growth at 10 µM (SF-268 [9]): -55% | growth at 10 µM (Malme-3M): -45% | growth at 10 µM (NCI/ADR-RES [10]): 15% | growth at 10 µM (MCF7 [11]): -24% | growth at 10 µM (T47D): -38% | growth at 100 µM (A549): -52% | growth at 100 µM (NCI-H460): -59% | growth at 100 µM (NCI/ADR-RES [12]): -3%
